US9845319B2, “Amide substituted thiazoles as modulators of RORyt” (Janssen Pharmaceutica NV, priority 2014, dated 2017)

Assays:
[1] = target: T1, human RORγt ligand binding domain (RORγt LBD) (Homo sapiens, UniProt P51449); assay: RORγt ThermoFluor assay; settings: estimated from thermal shift concentration response
T1 construct: His-tag (N); TurboTEV protease cleavage site (ENLYFQG) (N); made in house; host or cells: E. coli (pHIS1, a modified pET expression vector)
T1 sequence (P51449 with tags, fused parts or gaps): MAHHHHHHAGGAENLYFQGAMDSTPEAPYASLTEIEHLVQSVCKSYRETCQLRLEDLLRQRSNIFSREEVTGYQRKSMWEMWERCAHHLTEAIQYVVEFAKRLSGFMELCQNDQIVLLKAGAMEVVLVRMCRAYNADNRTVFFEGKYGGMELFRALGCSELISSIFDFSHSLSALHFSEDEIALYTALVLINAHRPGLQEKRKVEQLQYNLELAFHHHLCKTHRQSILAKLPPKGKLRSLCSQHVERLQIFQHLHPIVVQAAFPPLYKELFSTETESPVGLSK
In short: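 Thermal shift of RORγt LBD (0.065 mg/mL) with 60 μM 1,8-ANS in 100 mM Hepes pH 7.0, NaCl, GSH, 0.002% Tween-20, heated at 1° C/min. ANS fluorescence tracked versus temperature; ΔTm relative to DMSO wells. Compounds serially diluted 1:2 from 10 mM DMSO stock.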

full-length human RORγt = target: T2, full-length human RORγt (Homo sapiens, UniProt P51449); assay: RORγt (full-length human) Reporter Assay, Conditions A; assay type: cell-based; settings: for IC50: HEK293T cells, GAL4-DBD-RORγt, luciferase, read-out: RORγt (FL) Reporter Assay A, IC50; for inhibition at 6 µM: read-out: RORγt (FL) Reporter Assay A, % inhibition @ 6 μM, 6 μM compound; for inhibition at 2 µM: read-out: RORγt (FL) Reporter Assay A, % inhibition (* at 2 μM), 2 μM compound concentration (footnote *)
T2 construct: expressed in transfected cells; host or cells: HEK293T, transiently transfected with pCMV-BD-ROR
T2 sequence (P51449 1-497 isoform P51449-2): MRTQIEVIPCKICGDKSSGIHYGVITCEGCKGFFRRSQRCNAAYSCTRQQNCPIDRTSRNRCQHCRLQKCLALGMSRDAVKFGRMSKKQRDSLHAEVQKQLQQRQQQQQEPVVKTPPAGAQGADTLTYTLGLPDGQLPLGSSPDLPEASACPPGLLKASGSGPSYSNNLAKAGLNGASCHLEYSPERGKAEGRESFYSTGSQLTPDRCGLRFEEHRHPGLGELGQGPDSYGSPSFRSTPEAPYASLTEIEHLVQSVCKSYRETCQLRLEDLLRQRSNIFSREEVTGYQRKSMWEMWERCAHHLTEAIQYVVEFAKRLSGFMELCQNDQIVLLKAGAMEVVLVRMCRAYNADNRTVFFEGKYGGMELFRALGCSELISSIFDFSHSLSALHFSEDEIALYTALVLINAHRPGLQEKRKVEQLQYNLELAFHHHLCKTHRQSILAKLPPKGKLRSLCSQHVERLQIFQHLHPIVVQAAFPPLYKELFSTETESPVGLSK
In short: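 Reporter cells lysed after 16–20 h compound exposure; firefly and Renilla luciferase luminescence measured. Firefly signal normalised to DMSO and saturating reference compound, then to Renilla; IC50 from normalised data versus concentration, percent inhibition relative to DMSO.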

Compound	Kd [1]	IC50 (full-length human RORγt)	inhibition at 6 µM (full-length human RORγt)	inhibition at 2 µM (full-length human RORγt)
CC(C)(O)c1nnc(-c2nc(C(=O)N3CCC(F)(F)CC3)c(-c3ccc(S(=O)(=O)NC4(C(F)F)CC4)c(F)c3Cl)s2)o1 [Example 6/17, 3-Chloro-N-(1-(difluoromethyl)cyclopropyl)-4-(4-(4,4-difluoropiperidine-1-carbonyl)-2-(5-(2-hydroxypropan-2-yl)-1,3,4-oxadiazol-2-yl)thiazol-5-yl)-2-fluorobenzenesulfonamide]	21 nM	100 nM	105%	
C[C@H](NS(=O)(=O)c1ccc(-c2sc(-c3nnc(C(C)(C)O)o3)nc2C(=O)N2CCCC[C@@H]2C)c(C(F)F)c1F)C(F)(F)F [Example 6/18, 3-(Difluoromethyl)-2-fluoro-4-(2-(5-(2-hydroxypropan-2-yl)-1,3,4-oxadiazol-2-yl)-4-((S)-2-methylpiperidine-1-carbonyl)thiazol-5-yl)-N—((S)-1,1,1-trifluoropropan-2-yl)benzenesulfonamide]	1 nM	82 nM	104%	
CC(C)(O)c1nnc(-c2nc(C(=O)N3CCC(F)(F)CC3)c(-c3ccc(S(=O)(=O)NC(C)(C)C(F)(F)F)c(F)c3Cl)s2)o1 [Example 6/19, 3-Chloro-4-(4-(4,4-difluoropiperidine-1-carbonyl)-2-(5-(2-hydroxypropan-2-yl)-1,3,4-oxadiazol-2-yl)thiazol-5-yl)-2-fluoro-N-(1,1,1-trifluoro-2-methylpropan-2-yl)benzenesulfonamide]	6.1 nM	76 nM	107%	
CC[C@H](NS(=O)(=O)c1ccc(-c2sc(-c3nnc(C(C)(C)O)o3)nc2C(=O)N(CC)CC)c(Cl)c1F)C(F)(F)F [Example 6/20, (S)-5-(2-Chloro-3-fluoro-4-(N-(1,1,1-trifluorobutan-2-yl)sulfamoyl)phenyl)-N,N-diethyl-2-(5-(2-hydroxypropan-2-yl)-1,3,4-oxadiazol-2-yl)thiazole-4-carboxamide]	11 nM	43 nM		102%
C[C@H](NS(=O)(=O)c1ccc(-c2sc(-c3nnc(C(C)(C)O)o3)nc2C(=O)N2CC(F)C[C@@H]2C)c(C(F)F)c1F)C(F)(F)F (stereo partly drawn) [Example 6/21, 3-(Difluoromethyl)-2-fluoro-4-(4-((2S)-4-fluoro-2-methylpyrrolidine-1-carbonyl)-2-(5-(2-hydroxypropan-2-yl)-1,3,4-oxadiazol-2-yl)thiazol-5-yl)-N—((S)-1,1,1-trifluoropropan-2-yl)benzenesulfonamide]	270 nM	410 nM	102%	
CC(C)(O)c1nnc(-c2nc(C(=O)N3CC(F)(F)CC3(C)C)c(-c3ccc(S(=O)(=O)NC4(C(F)F)CC4)c(F)c3Cl)s2)o1 [Example 6/22, 3-Chloro-4-(4-(4,4-difluoro-2,2-dimethylpyrrolidine-1-carbonyl)-2-(5-(2-hydroxypropan-2-yl)-1,3,4-oxadiazol-2-yl)thiazol-5-yl)-N-(1-(difluoromethyl)cyclopropyl)-2-fluorobenzenesulfonamide]	1200 nM	1600 nM	74%	
CN(CC(F)(F)F)S(=O)(=O)c1ccc(-c2sc(-c3nnc(C(C)(C)O)o3)nc2C(=O)N2CCC(F)(F)CC2)c(Cl)c1F [Example 6/23, 3-Chloro-4-(4-(4,4-difluoropiperidine-1-carbonyl)-2-(5-(2-hydroxypropan-2-yl)-1,3,4-oxadiazol-2-yl)thiazol-5-yl)-2-fluoro-N-methyl-N-(2,2,2-trifluoroethyl)benzenesulfonamide]	6000 nM	2300 nM	40%	
C[C@H]1CCCN1C(=O)c1nc(-c2nnc(C(C)(C)O)o2)sc1-c1ccc(OCC(O)(C(F)(F)F)C(F)(F)F)cc1C(F)(F)F [Example 6/24, (S)-(2-(5-(2-Hydroxypropan-2-yl)-1,3,4-oxadiazol-2-yl)-5-(4-(3,3,3-trifluoro-2-hydroxy-2-(trifluoromethyl)propoxy)-2-(trifluoromethyl)phenyl)thiazol-4-yl)(2-methylpyrrolidin-1-yl)methanone]	11 nM	130 nM		96%
CCN(CC)C(=O)c1nc(-c2nnc(C)o2)sc1-c1ccc(S(=O)(=O)N[C@@H](C)C(F)(F)F)c(Cl)c1Cl [Example 7, (S)-5-(2,3-Dichloro-4-(N-(1,1,1-trifluoropropan-2-yl)sulfamoyl)phenyl)-N,N-diethyl-2-(5-methyl-1,3,4-oxadiazol-2-yl)thiazole-4-carboxamide]	290 nM	120 nM	102%	
C[C@H](NS(=O)(=O)c1ccc(-c2sc(-c3nnc(C(C)(C)O)o3)nc2C(=O)N2CCC(F)(F)CC2)c(Cl)c1F)C(F)(F)F [Example 8/1, (S)-3-Chloro-4-(4-(4,4-difluoropiperidine-1-carbonyl)-2-(5-(2-hydroxypropan-2-yl)-1,3,4-oxadiazol-2-yl)thiazol-5-yl)-2-fluoro-N-(1,1,1-trifluoropropan-2-yl)benzenesulfonamide]	5.6 nM	61 nM	108%	
CC(C)(O)c1nnc(-c2nc(C(=O)N3CCC(F)(F)CC3)c(-c3ccc(CC(O)(C(F)(F)F)C(F)(F)F)c(Cl)c3Cl)s2)o1 [Example 8/2, (5-(2,3-Dichloro-4-(3,3,3-trifluoro-2-hydroxy-2-(trifluoromethyl)propyl)phenyl)-2-(5-(2-hydroxypropan-2-yl)-1,3,4-oxadiazol-2-yl)thiazol-4-yl)(4,4-difluoropiperidin-1-yl)methanone]	1.7 nM	51 nM		104%
CC(C)(O)c1nnc(-c2nc(C(=O)N3CCC(F)(F)CC3)c(-c3ccc(CC(O)(C(F)(F)F)C(F)(F)F)c(Cl)c3)s2)o1 [Example 8/3, (5-(3-Chloro-4-(3,3,3-trifluoro-2-hydroxy-2-(trifluoromethyl)propyl)phenyl)-2-(5-(2-hydroxypropan-2-yl)-1,3,4-oxadiazol-2-yl)thiazol-4-yl)(4,4-difluoropiperidin-1-yl)methanone]	6.3 nM	83 nM		104%
CCN(CC)C(=O)c1nc(-c2nnc(C(C)(C)O)[nH]2)sc1-c1ccc(C(O)(C(F)(F)F)C(F)(F)F)c(Cl)c1Cl [Example 9, 5-(2,3-Dichloro-4-(1,1,1,3,3,3-hexafluoro-2-hydroxypropan-2-yl)phenyl)-N,N-diethyl-2-(5-(2-hydroxypropan-2-yl)-4H-1,2,4-triazol-3-yl)thiazole-4-carboxamide]	32 nM	120 nM		99%
CCN(CC)C(=O)c1nc(-c2nncn2CC(C)(C)O)sc1-c1ccc(C(O)(C(F)(F)F)C(F)(F)F)c(Cl)c1Cl [Example 9/1, 5-(2,3-Dichloro-4-(1,1,1,3,3,3-hexafluoro-2-hydroxypropan-2-yl)phenyl)-N,N-diethyl-2-(4-(2-hydroxy-2-methylpropyl)-4H-1,2,4-triazol-3-yl)thiazole-4-carboxamide]	27 nM	67 nM		99%
C[C@H](NS(=O)(=O)c1ccc(-c2sc(-c3nnc(C(C)(C)O)[nH]3)nc2C(=O)N2CC(F)(F)C[C@@H]2C)c(Cl)c1Cl)C(F)(F)F [Example 9/2, 2,3-Dichloro-4-(4-((S)-4,4-difluoro-2-methylpyrrolidine-1-carbonyl)-2-(5-(2-hydroxypropan-2-yl)-4H-1,2,4-triazol-3-yl)thiazol-5-yl)-N—((S)-1,1,1-trifluoropropan-2-yl)benzenesulfonamide]	0.71 nM	28 nM		104%
C[C@H](NS(=O)(=O)c1ccc(-c2sc(-c3nnc(C(C)(C)O)[nH]3)nc2C(=O)N2CCC(F)(F)CC2)c(Cl)c1Cl)C(F)(F)F [Example 9/3, (S)-2,3-Dichloro-4-(4-(4,4-difluoropiperidine-1-carbonyl)-2-(5-(2-hydroxypropan-2-yl)-4H-1,2,4-triazol-3-yl)thiazol-5-yl)-N-(1,1,1-trifluoropropan-2-yl)benzenesulfonamide]	1.2 nM	61 nM		104%
